Entries after “also recorded” stand apart in the source; their conditions may differ. Where two headings read alike, the source gives them in different places. Where no end group is shown, it is not given here. The star is where a group is joined. FITC = O=C1OC2(c3ccc(O)cc3Oc3cc(O)ccc32)c2ccc(NC(=S)*)cc21
Assays:
mammalian cell = conditions: not coupled to a targeting domain; cited from earlier work
A431 cells = assay: Fluorescence microscopy binding to control cells; type: cell-based, human
Protocol: (§1) Ishikawa cells and A431 cells were grown on glass coverslips in 3.5 cm tissue culture plates. Each phage clone including z13 was added to these cells, incubated at 4° C. for 15 min, washed with cold PBS, and fixed with 1% paraformaldehyde (PFA) in PBS. Phage was detected using rabbit anti-T7 antibody and FITC-conjugated goat anti-rabbit IgG antibody. After washing three times with PBS, cells were fixed with 1% paraformaldehyde in PBS and inspected under a Zeiss Axioplan fluorescence microscope. Ishikawa cells grown on glass coverslips were incubated in medium containing FITC-z13 peptide (1 μg/ml) at 37° C. for 15 min. After washing with PBS, cells were fixed with 1% PFA in PBS, and inspected under the fluorescence microscope. Qdot-encapsulated and C16-z13 peptide coated liposomes were prepared as described above. Ishikawa cells were incubated with these liposomes at 37° C. for 15 min, washed with PBS, fixed with 1% PFA, and inspected under the fluorescence microscope. Qdot605-conjugated peptide, Qdot-cys-z13, or control peptide, Qdot-cys-m2, was added to the culture at 100 nM and left at 37° C. for 15 min.
(§2) Ishikawa cells and A431 cells were grown on glass coverslips in 3.5-cm tissue culture plates. Ishikawa cells grown on glass coverslips were incubated in medium containing FITC-z13 peptide (1 μg/ml) at 37° C. for 15 min. After washes with PBS, cells were fixed with 1% PFA in PBS and inspected under a fluorescence microscope. Qdot-cys-z13 was prepared by conjugating cys-z13 to Qdot nanoparticles (Qdot antibody conjugation kit, Quantum Dot, Hayward, Calif.) in accordance with the manufacturer's protocol. Cells were inspected under a Zeiss Axioplan fluorescence microscope.

Ishikawa cells = assay: Fluorescence microscopy binding to live cells; type: cell-based, human; conditions: for fluorescence/binding of Qdot-conjugated peptide on Ishikawa cells: 100 nM
Protocol: as §1, §2

CNGB3 [1] = biological target: T1, CNGB3 (Homo sapiens, UniProt Q9NQW8); assay: FITC-z13 binding to HeLa cells transfected with CNGB3-MYC; type: cell-based; conditions: 5 μg/ml, 37° C. 15 min
T1 construct: tissue Folio Biosciences; Imgenex; host or cells: human endometriosis tissue sections, normal uterine endometrium and normal tissue microarrays, peritoneum
T1 sequence (Q9NQW8 1-809 C234W): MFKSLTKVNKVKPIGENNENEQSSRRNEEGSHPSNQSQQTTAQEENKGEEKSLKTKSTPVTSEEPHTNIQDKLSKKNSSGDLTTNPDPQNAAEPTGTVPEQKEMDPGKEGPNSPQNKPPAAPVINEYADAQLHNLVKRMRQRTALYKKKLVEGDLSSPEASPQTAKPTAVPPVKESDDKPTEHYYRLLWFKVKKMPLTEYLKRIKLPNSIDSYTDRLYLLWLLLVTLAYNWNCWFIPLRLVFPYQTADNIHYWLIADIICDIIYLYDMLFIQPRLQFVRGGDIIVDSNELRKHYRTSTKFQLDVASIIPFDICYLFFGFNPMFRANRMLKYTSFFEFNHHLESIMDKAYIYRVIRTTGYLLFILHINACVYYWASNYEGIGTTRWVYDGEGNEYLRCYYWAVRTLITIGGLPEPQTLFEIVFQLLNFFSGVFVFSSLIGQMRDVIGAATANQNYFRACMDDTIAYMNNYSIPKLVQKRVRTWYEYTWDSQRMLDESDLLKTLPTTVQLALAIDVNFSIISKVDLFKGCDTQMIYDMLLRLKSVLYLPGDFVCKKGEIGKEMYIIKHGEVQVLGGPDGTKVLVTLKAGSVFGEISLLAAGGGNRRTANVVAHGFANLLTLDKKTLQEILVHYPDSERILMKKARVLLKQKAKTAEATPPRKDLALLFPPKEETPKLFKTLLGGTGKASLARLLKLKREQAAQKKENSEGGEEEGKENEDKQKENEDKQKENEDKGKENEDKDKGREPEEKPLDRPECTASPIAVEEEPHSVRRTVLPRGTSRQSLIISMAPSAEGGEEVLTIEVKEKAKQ
From the text: (§3) To assess binding of FITC-z13 to CNGB3, HeLa cells were transfected with a mammalian expression vector encoding a CNGB3-MYC fusion protein or with control empty vector. Fluorescence micrographs were made of HeLa cells transfected by control vector or with an expression vector encoding CNGB3-MYC.
(§4) CNGB3 cDNA was kindly provided by Dr. Hisao Ueyama, Department of Ophthalomology, Shiga University of Medical Science, Japan. cDNA encoding full-length CNGB3 was excised by HindIII and BsrGI and ligated into the HindIII and Asp718I sites of pcDNA3.1/myc-His-B vector (Invitrogen). HeLa cells were transfected with this vector, and expression of CNGB3-MYC/His fusion protein was determined by immunohistochemistry with an anti-MYC antibody and the anti-CNGB3 antibody (clone 3B2) described above. To test binding of z13 peptide to CNGB3, FITC-z13 was added (5 μg/ml) to the medium of HeLa cells transfected by the above-described vector and incubated at 37° C. for 15 min. Cells were washed with PBS, fixed with 4% PFA in PBS, and observed under a fluorescence microscope.

CNGB3 [2] = biological target: T2, CNGB3 (Homo sapiens, UniProt Q9NQW8, C234W); assay: as above; type: cell-based; conditions: control empty vector
T2 construct: tissue Folio Biosciences; Imgenex; host or cells: human endometriosis tissue sections, normal uterine endometrium and normal tissue microarrays, peritoneum
T2 sequence (Q9NQW8 1-809 C234W): T1 sequence (Q9NQW8 1-809 C234W)
From the text: as §3, §4

[3] = system: CNGB3-MYC expressing HEK293T cells; assay: Endosome escape of biotin-z13 in CNGB3-MYC expressing HEK293T cells; type: cell-based; conditions: 37° C. 30 min
From the text: (§5) It was realized that this lack of effect could be due to the fact that receptor-bound dKLAK-z13 localizes to the luminal side of endosomes, a prediction supported by the endosome-like pattern of fluorescent z13. To release dKLAK-z13 from the endosomes to the cytoplasm, an endosome-escaping 18-mer peptide HLAHLAHHLAHLAHHLAH (SEQ ID NO:38; here abbreviated as HLAH) was devised by replacing lysines in KLAKLAK (SEQ ID NO:39) with histidines, to provide histidine-rich sequences capable of destabilizing endosome membranes at acidic pH (Midoux et al., 2002; Pichon et al., 2001). […] For this experiment, biotin-z13 was bound to CNGB3-MYC expressing HEK293T cells at 37° C. for 30 min with or without HLAH-z13. Cells were stained by Alexa 488-conjugated avidin followed by DAPI nuclear staining.

[4] = system: CNGB3-expressing HEK293T cells; assay: Cell viability assay (ATP, CellTiter Glo) in CNGB3-expressing cells; type: cell-based; conditions: 37° C. 1 hour, single peptide
Protocol: FIG. 5 is a graph of luminescence of live cells cultured in medium containing peptides on CNGB3-MYC expressing A431 cells versus peptide concentration for the four different peptide combinations: z13, dKLAK-z13, HLAH-z13, or dKLAK-z13 plus HLAH-z13. Cells were cultured in medium containing each peptide at the indicated concentrations at 37° C. for 1 hour. ATP levels were measured by CellTiter Glo (Promega). Lines represent, in order from top to bottom: z13, dKLAK-z13, HLAH-z13, and dKLAK-z13 plus HLAH-z13.
Cytotoxic activity of dKLAK-z13 was then assessed in the presence of HLAH-z13 using a cell viability assay (FIG. 5). When CNGB3-expressing HEK293T cells were cultured in medium containing z13, dKLAK-z13, or HLAH-z13 at 37° C. for 1 hour, cell viability was not affected except at high concentration of dKLAK-z13 (at 200 μg/ml) or HLAH-z13 (at 50 μg/ml). […] For this experiment, cells were cultured at 37° C. for 20 hours in medium containing no peptide; z13 (100 μg/ml); dKLAK (100 μg/ml); dKLAK-z13 (100 μg/ml); HLAH-z13 (25 μg/ml); or dKLAK-z13 (100 μg/ml) plus HLAH-z13 (25 μg/ml).

[5] = system: CNGB3-positive A431 cells; assay: Cell viability assay measuring ATP with KLA-HLA hybrid z13 peptides; type: cell-based, human; conditions: 37° C. 6 hours, ATP by CellTiter Glo (FIG. 8)
Protocol: FIG. 8 is a graph of luminescence versus peptide concentration in μg/ml. […] Cells were cultured in medium containing each peptide at indicated concentrations at 37° C. for 6 hours. ATP levels were measured by CellTiter Glo (Promega).
(§6) The effect of these peptides was tested using CNGB3-positive A431 cells, which was generated by transfecting A431 cells with CNGB3-Myc gene driving lenti viral vector. […] The assays used detected no difference between these two peptides. The TUNEL assay was of CNGB3-MYC expressing A431 cells after culturing in medium containing KLA-HLA-z13 for 24 hours.

[6] = system: CNGB3-MYC expressing A431 cells; assay: TUNEL assay with KLA-HLA hybrid z13 peptides; type: cell-based, human; conditions: 24 hours in medium containing peptide
Protocol: as §6

[7] = system: CNGB3-Myc cDNA-transfected HEK293T cells; assay: Apoptosis (TUNEL) of CNGB3-Myc transfected HEK293T cells; type: cell-based; conditions: peptide alone added to culture medium
From the text: as §5
Each peptide was dissolved in dimethylsulfoxide at 100 μg/μl. Each peptide was added to the medium of cells, and the cells were cultured at 37° C. for 20 hours. Apoptosis of CNGB3-Myc cDNA-transfected HEK293T cells was determined by TUNEL assay using the ApopTag immunoperoxidase kit (Chemicon, Temecula, Calif.).

Substance: (KLAKLAK)2 (KLAKLAKKLAKLAK) [mitochondriotoxic pro-apoptotic peptide (PAP)]
- mammalian cell cytotoxicity of the peptide by itself (mammalian cell): low mammalian cell cytotoxicity

Substance: FITC-z13: synthetic fluorescence-tagged z13 peptide whose amino-terminus was conjugated ({FITC}-VRRADNRPG)
- binding of FITC-tagged z13 peptide to A431 cells (A431 cells): did not show fluorescence
- binding of FITC-tagged z13 peptide to A431 cells (A431 cells; listed as z13 peptide with an N-terminal FITC-tag): not
- binding of FITC-tagged z13 peptide to Ishikawa cells (Ishikawa cells; 1 μg/ml, 37° C. 15 min): bound
- binding to CNGB3-MYC-expressing HeLa cells (CNGB3 [1]): bound to sites marked by MYC-epitope expression
- binding to vector-transfected control HeLa cells (CNGB3 [2]): did not bind

Substance: HLAHLAHHLAHLAHHLAHVRRADNRPG (HLAHLAHHLAHLAHHLAHVRRAXNXPG; (23)..(23) Xaa can be any naturally occurring amino acid; (25)..(25) Xaa can be any naturally occurring amino acid) [HLAH-z13]
- endosome-escaping activity (release of biotin-z13 from endosomes to cytoplasm) [3]: promotes endosome-escaping activity
- high concentration at which cell viability was affected (otherwise not affected) [4]: 50 µg/mL

Substance: HLAHLAHHLAHLAHKLAKLAKKLAKLAKVRRADNRPG [HLA-KLA-z13]
- apoptosis / loss of viability of CNGB3-positive A431 cells [5]: induced apoptosis

Substance: KLAKLAKKLAKLAKHLAHLAHHLAHLAHVRRADNRPG [KLA-HLA-z13]
- apoptosis / loss of viability of CNGB3-positive A431 cells [5]: induced apoptosis
- frequency of TUNEL-positive cells [6]: dose-dependent increase in the frequency of TUNEL-positive cells

Substance: KLAKLAKKLAKLAKKLAKVRRADNRPG [dKLAK-z13]
- high concentration at which cell viability was affected (otherwise not affected) [4]: 200 µg/mL
- induction of apoptosis in CNGB3-expressing cells [7]: apoptosis was not induced; also recorded: did not induce apoptosis

Substance: Qdot-cys-z13: synthetic cys-z13 peptide CVRRADNRPG conjugated to fluorescent nanocrystal Qdot605 (also: conjugated to Qdot605 nanocrystal)
- binding of Qdot-conjugated peptide to A431 cells (A431 cells): not
- fluorescence/binding of Qdot-conjugated peptide on Ishikawa cells (Ishikawa cells; 37° C. 15 min): strong fluorescence
- fluorescence/binding of Qdot-conjugated peptide on Ishikawa cells (Ishikawa cells; 37° C. 15 min, listed as Qdot-z13): bound

Substance: VRRADNRPG [z13]
- cell viability [4]: not affected
- cellular localization of z13 in Ishikawa cells (Ishikawa cells; punctuate cytoplasmic staining pattern in micrographs): internalized to endosomes
